Measurements as given in patent US20100267561A1, “HERBICIDAL PYRIDAZINONE DERIVATIVES” (priority 2007, published 2010).

How the values were obtained:
Format in all cases: in vivo
rice (Oryza sativa) = experiment: Test B flooded paddy test plant response
How it was run: (§1)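 Step one: raise plants to 2 leaves. Step two: flood pots 3 cm over the soil and apply compound into the water, keeping this depth. Step three: after 13–15 greenhouse days, score visually versus controls, 0–100, where 100 means complete control.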

[1] = tested on: ducksalad (Heteranthera limosa); experiment: Test B flooded paddy test plant response
How it was run: as §1

[2] = tested on: umbrella sedge (Cyperus difformis); experiment: Test B flooded paddy test plant response
How it was run: as §1

[3] = tested on: barnyardgrass (Echinochloa crus-galli); experiment: Test B flooded paddy test plant response
How it was run: as §1

[4] = tested on: downy bromegrass (Bromus tectorum); experiment: Test B pre-/postemergence plant response
From the text: (§2) Seeds of plant species selected from blackgrass (Alopecurus myosuroides), downy bromegrass (Bromus tectorum), green foxtail (Setaria viridis), Italian ryegrass (Lolium multiflorum), wheat (Triticum aestivum), wild oat (Avena fatua), catchweed bedstraw (Galium aparine), bermudagrass (Cynodon dactylon), surinam grass (Brachiaria decumbens), cocklebur (Xanthium strumarium), corn (Zea mays), large crabgrass (Digitaria sanguinalis), woolly cupgrass (Eriochloa villosa), giant foxtail (Setaria faberii), goosegrass (Eleusine indica), johnsongrass (Sorghum halepense), kochia (Kochia scoparia), lambsquarters (Chenopodium album), morningglory (Ipomoea coccinea), eastern black (E.B.) nightshade (Solanum ptycanthum), yellow nutsedge (Cyperus esculentus), pigweed (Amaranthus retroflexus), common ragweed (Ambrosia elation), Russian thistle (Salsola iberica), soybean (Glycine max), common (oilseed) sunflower (Helianthus annuus), and velvetleaf (Abutilon theophrasti) were planted and treated preemergence with test chemicals formulated in a non-phytotoxic solvent mixture which included a surfactant.
(§3) At the same time, plants selected from these crop and weed species and also winter barley (Hordeum vulgare), canarygrass (Phalaris minor), chickweed (Stellaria media) and windgrass (Apera spica-venti) were treated with postemergence applications of some of the test chemicals formulated in the same manner. Plants ranged in height from 2 to 18 cm (1- to 4-leaf stage) for postemergence treatments.
(§4) Plant species in the flooded paddy test consisted of rice (Oryza sativa), umbrella sedge (Cyperus difformis), ducksalad (Heteranthera limosa) and barnyardgrass (Echinochloa crus-galli) grown to the 2-leaf stage for testing. At time of treatment, test pots were flooded to 3 cm above the soil surface, treated by application of test compounds directly to the paddy water, and then maintained at that water depth for the duration of the test. Treated plants and controls were maintained in a greenhouse for 13 to 15 days, after which time all species were compared to controls and visually evaluated. Plant response ratings, summarized in Table B, are based on a scale of 0 to 100 where 0 is no effect and 100 is complete control. A dash (-) response means no test result.

[5] = tested on: green foxtail (Setaria viridis); experiment: Test B pre-/postemergence plant response
From the text: as §2, §3, §4

[6] = tested on: common (oilseed) sunflower (Helianthus annuus); experiment: Test B pre-/postemergence plant response; details: Preemergence
From the text: as §2, §3, §4

corn (Zea mays) = experiment: Test B pre-/postemergence plant response
From the text: as §2, §3, §4

[7] = tested on: morningglory (Ipomoea coccinea); experiment: Test B pre-/postemergence plant response
From the text: as §2, §3, §4

[8] = tested on: velvetleaf (Abutilon theophrasti); experiment: Test B pre-/postemergence plant response
From the text: as §2, §3, §4

[9] = tested on: wheat (Triticum aestivum); experiment: Test B pre-/postemergence plant response
From the text: as §2, §3, §4

[10] = tested on: surinam grass (Brachiaria decumbens); experiment: Test B pre-/postemergence plant response
From the text: as §2, §3, §4

wild oat (Avena fatua) = experiment: Test B pre-/postemergence plant response
From the text: as §2, §3, §4

[11] = tested on: large crabgrass (Digitaria sanguinalis); experiment: Test B pre-/postemergence plant response
From the text: as §2, §3, §4

[12] = Flood (flooded paddy test), 62 g ai/ha, scale 0 to 100, 0 no effect, 100 complete control
[13] = Flood (flooded paddy test), 125 g ai/ha, scale 0 to 100, 0 no effect, 100 complete control
[14] = Flood (flooded paddy test), 250 g ai/ha, scale 0 to 100, 0 no effect, 100 complete control
[15] = Flood, 31 g ai/ha, scale 0 to 100
[16] = Postemergence, 31 g ai/ha, scale 0 to 100, 0 no effect, 100 complete control
[17] = Postemergence, 62 g ai/ha, scale 0 to 100
[18] = Postemergence, 125 g ai/ha, scale 0 to 100
[19] = Postemergence, 250 g ai/ha, scale 0 to 100
[20] = Preemergence, 31 g ai/ha, 0 to 100 scale, 0 no effect, 100 complete control
[21] = Preemergence, 62 g ai/ha, scale 0 to 100
[22] = Preemergence, 125 g ai/ha, scale 0 to 100
[23] = Preemergence, 250 g ai/ha, scale 0 to 100

4-[3-(4-chlorophenyl)-5-methyl-1H-pyrazol-3-yl]-5-hydroxy-2-methyl-3(2H)-pyridazinone [Compound 3]
Plant response rating, Rice (rice (Oryza sativa); [12]): 60 | Plant response rating, Rice (rice (Oryza sativa); [13]): 75 | Plant response rating, Rice (rice (Oryza sativa); [14]): 80 | Plant response rating, Rice (rice (Oryza sativa); [15]): 20 | Plant response rating, Ducksalad [1, 12]: 0 | Plant response rating, Ducksalad [1, 13]: 0 | Plant response rating, Ducksalad [1, 14]: 40 | Plant response rating, Ducksalad [1, 15]: 0 | Plant response rating, Sedge, Umbrella [2, 12]: 60 | Plant response rating, Sedge, Umbrella [2, 13]: 80 | Plant response rating, Sedge, Umbrella [2, 14]: 80 | Plant response rating, Sedge, Umbrella [2, 15]: 60 | Plant response rating, Barnyardgrass [3, 12]: 60 | Plant response rating, Barnyardgrass [3, 13]: 70 | Plant response rating, Barnyardgrass [3, 14]: 80 | Plant response rating, Barnyardgrass [3, 15]: 0 | Plant response rating, Bromegrass, Downy [4, 16]: 5 | Plant response rating, Bromegrass, Downy [4, 17]: 5 | Plant response rating, Bromegrass, Downy [4, 18]: 5 | Plant response rating, Bromegrass, Downy [4, 19]: 5 | Plant response rating, Bromegrass, Downy [4, 20]: 50 | Plant response rating, Bromegrass, Downy [4, 21]: 60 | Plant response rating, Bromegrass, Downy [4, 22]: 95 | Plant response rating, Bromegrass, Downy ([4]; Preemergence, 250 g ai/ha, scale 0 to 100 (0 no effect, 100 complete control)): 98 | Plant response rating, Foxtail, Green [5, 16]: 90 | Plant response rating, Foxtail, Green [5, 17]: 100 | Plant response rating, Foxtail, Green [5, 18]: 100 | Plant response rating, Foxtail, Green [5, 19]: 100 | Plant response rating, Foxtail, Green [5, 20]: 100 | Plant response rating, Foxtail, Green [5, 21]: 100 | Plant response rating, Foxtail, Green [5, 22]: 100 | Plant response rating, Foxtail, Green [5, 23]: 100 | Plant response rating, Sunflower ([6]; 31 g ai/ha, 0 to 100 scale, 0 no effect, 100 complete control): 30 | Plant response rating, Sunflower ([6]; 62 g ai/ha, scale 0 to 100): 40 | Plant response rating, Corn (corn (Zea mays); [16]): 100 | Plant response rating, Corn (corn (Zea mays); [17]): 100 | Plant response rating, Corn (corn (Zea mays); [18]): 100 | Plant response rating, Corn (corn (Zea mays); [19]): 100 | Plant response rating, Corn (corn (Zea mays); [20]): 95 | Plant response rating, Corn (corn (Zea mays); [21]): 95 | Plant response rating, Corn (corn (Zea mays); [22]): 95 | Plant response rating, Corn (corn (Zea mays); [23]): 98 | Plant response rating, Morningglory [7, 16]: 0 | Plant response rating, Morningglory [7, 17]: 0 | Plant response rating, Morningglory [7, 18]: 0 | Plant response rating, Morningglory [7, 19]: 0 | Plant response rating, Morningglory [7, 20]: 0 | Plant response rating, Morningglory [7, 21]: 0 | Plant response rating, Morningglory [7, 22]: 0 | Plant response rating, Morningglory [7, 23]: 0 | Plant response rating, Velvetleaf [8, 16]: 0 | Plant response rating, Velvetleaf [8, 17]: 0 | Plant response rating, Velvetleaf [8, 18]: 0 | Plant response rating, Velvetleaf [8, 19]: 0 | Plant response rating, Velvetleaf [8, 20]: 0 | Plant response rating, Velvetleaf [8, 21]: 0 | Plant response rating, Velvetleaf [8, 22]: 0 | Plant response rating, Velvetleaf [8, 23]: 20 | Plant response rating, Wheat [9, 16]: 80 | Plant response rating, Wheat [9, 17]: 90 | Plant response rating, Wheat [9, 18]: 100 | Plant response rating, Wheat [9, 19]: 100 | Plant response rating, Wheat [9, 20]: 45 | Plant response rating, Wheat [9, 21]: 75 | Plant response rating, Wheat [9, 22]: 95 | Plant response rating, Wheat [9, 23]: 98 | Plant response rating, Surinam Grass [10, 16]: 100 | Plant response rating, Surinam Grass [10, 17]: 100 | Plant response rating, Surinam Grass [10, 18]: 100 | Plant response rating, Surinam Grass [10, 19]: 100 | Plant response rating, Surinam Grass [10, 20]: 100 | Plant response rating, Surinam Grass [10, 21]: 100 | Plant response rating, Surinam Grass [10, 22]: 100 | Plant response rating, Surinam Grass [10, 23]: 100 | Plant response rating, Oat, Wild (wild oat (Avena fatua); [16]): 90 | Plant response rating, Oat, Wild (wild oat (Avena fatua); [17]): 95 | Plant response rating, Oat, Wild (wild oat (Avena fatua); [18]): 100 | Plant response rating, Oat, Wild (wild oat (Avena fatua); [19]): 100 | Plant response rating, Oat, Wild (wild oat (Avena fatua); [20]): 60 | Plant response rating, Oat, Wild (wild oat (Avena fatua); [21]): 70 | Plant response rating, Oat, Wild (wild oat (Avena fatua); [22]): 80 | Plant response rating, Oat, Wild (wild oat (Avena fatua); [23]): 95 | Plant response rating, Crabgrass, Large [11, 16]: 100 | Plant response rating, Crabgrass, Large [11, 17]: 100 | Plant response rating, Crabgrass, Large [11, 18]: 100 | Plant response rating, Crabgrass, Large [11, 19]: 100 | Plant response rating, Crabgrass, Large [11, 20]: 90 | Plant response rating, Crabgrass, Large [11, 21]: 90 | Plant response rating, Crabgrass, Large [11, 22]: 100 | Plant response rating, Crabgrass, Large [11, 23]: 100
